# Legend:
# [1] = molecular target: T1, KATP channels in large DRG neurons (Rattus norvegicus, UniProt P70673+Q09429); assay: Cell-attached single-channel patch-clamp recording of KATP channel activity (NPo); assay type: cell-based; conditions: for NPo steady-state value 10 minutes after application of SNAP: SNAP 100 μM, n = 7
# T1 construct: native KATP channels in large DRG neurons; endogenous in cells; host or cells: acutely dissociated large-diameter neurons from rat L4/L5 dorsal root ganglia (sham-operated or spinal nerve ligated animals)
# T1 sequence (Q09429 whole entry): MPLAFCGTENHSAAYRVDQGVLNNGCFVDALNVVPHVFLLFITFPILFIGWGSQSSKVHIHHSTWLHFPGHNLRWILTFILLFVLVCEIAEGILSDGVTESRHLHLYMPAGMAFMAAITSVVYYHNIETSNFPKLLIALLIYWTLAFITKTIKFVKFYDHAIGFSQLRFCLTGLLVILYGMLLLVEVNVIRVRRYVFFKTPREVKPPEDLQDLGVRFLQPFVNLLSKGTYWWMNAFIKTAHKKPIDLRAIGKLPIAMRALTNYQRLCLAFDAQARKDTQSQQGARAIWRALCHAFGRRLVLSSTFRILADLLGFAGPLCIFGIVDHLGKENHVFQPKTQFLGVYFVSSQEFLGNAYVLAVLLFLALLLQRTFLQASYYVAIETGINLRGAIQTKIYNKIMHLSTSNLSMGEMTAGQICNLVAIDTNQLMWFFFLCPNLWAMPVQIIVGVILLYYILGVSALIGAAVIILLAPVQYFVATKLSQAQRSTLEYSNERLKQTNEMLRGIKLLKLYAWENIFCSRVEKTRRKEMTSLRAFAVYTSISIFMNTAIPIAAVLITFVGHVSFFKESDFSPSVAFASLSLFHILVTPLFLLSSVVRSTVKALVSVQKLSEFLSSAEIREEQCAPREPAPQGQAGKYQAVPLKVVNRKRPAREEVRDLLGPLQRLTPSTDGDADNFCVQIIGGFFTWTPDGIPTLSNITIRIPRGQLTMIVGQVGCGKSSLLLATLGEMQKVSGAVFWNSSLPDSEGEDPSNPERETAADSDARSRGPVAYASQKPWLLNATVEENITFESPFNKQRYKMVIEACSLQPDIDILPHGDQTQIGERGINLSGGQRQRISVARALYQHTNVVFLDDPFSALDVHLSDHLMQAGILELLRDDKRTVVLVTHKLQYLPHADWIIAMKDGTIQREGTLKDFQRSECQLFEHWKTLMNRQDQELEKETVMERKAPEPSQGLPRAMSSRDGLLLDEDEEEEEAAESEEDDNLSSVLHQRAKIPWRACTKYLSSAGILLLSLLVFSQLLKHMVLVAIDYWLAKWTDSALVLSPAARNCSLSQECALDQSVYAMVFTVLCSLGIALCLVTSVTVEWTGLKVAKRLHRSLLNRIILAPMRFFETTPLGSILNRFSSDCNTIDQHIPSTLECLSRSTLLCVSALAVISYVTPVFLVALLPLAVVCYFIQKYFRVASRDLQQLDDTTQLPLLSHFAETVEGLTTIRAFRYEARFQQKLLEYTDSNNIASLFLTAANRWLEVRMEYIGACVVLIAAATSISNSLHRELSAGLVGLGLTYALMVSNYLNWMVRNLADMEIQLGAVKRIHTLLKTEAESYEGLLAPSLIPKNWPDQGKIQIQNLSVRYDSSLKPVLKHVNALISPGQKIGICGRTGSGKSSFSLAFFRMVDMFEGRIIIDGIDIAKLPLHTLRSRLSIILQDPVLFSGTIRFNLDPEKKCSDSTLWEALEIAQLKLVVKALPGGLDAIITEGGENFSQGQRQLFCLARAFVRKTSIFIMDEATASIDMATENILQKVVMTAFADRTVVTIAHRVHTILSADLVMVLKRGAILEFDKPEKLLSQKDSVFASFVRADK
# T1 sequence (P70673 whole entry): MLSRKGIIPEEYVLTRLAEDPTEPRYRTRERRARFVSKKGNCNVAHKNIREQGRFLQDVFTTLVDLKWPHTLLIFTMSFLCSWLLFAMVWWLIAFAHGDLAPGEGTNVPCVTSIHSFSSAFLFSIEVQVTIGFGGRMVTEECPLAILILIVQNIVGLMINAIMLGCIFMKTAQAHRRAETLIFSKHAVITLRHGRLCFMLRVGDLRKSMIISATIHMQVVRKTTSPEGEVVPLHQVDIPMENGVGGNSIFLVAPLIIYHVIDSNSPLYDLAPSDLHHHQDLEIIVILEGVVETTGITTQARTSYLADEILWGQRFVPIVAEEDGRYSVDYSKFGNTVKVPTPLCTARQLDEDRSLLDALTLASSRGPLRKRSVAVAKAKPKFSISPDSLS
# Text: (§1) We harvested control (L4 and L5) or axotomized (L5) ganglia, from control (SS) or hyperalgesic rats (SNL) respectively, between the 17th and 28th postoperative days. We sacrificed animals by decapitation under deep isoflurane anesthesia, excised ganglia through a lumbar incision, and at the same time confirmed accuracy of initial surgery.
# For patch-clamp recordings, we placed excised DRG into separate 35 mm Petri dishes containing cold, oxygenated, Hanks Balanced Salt Solution (Gibko, Invitrogen, Grand Islan, NY), and minced them with iris scissors. We dissociated ganglia enzymatically in a solution containing 0.25 ml 0.05% w:v liberase blendzyme 2 (Roche Diagnostics Corp., Indianapolis, IN) and 0.25 ml DMEM/F12 with glutaMAX (Dulbecco's modified Eagle's medium F12; Gibco, Invitrogen Corp., Carlsbad, CA) in an incubator at 37°C for 30 min. […] Finally, we plated cells onto poly-l-lysine-coated 12-mm glass coverslips (Deutsche Spiegelglas; Carolina Biologic Supply, Burlington, NC), kept them in a humidified incubator at 37°C with 95% air and 5% CO2, and studied them within 3–8 h of dissociation.
# We visualized plated neurons using an inverted Nikon Diaphot 300 microscope with Hoffman modulation optic system. […] Large neuronal somata, roughly correspond to large, myelinated Aβ fibers.
# (§2) We recorded current passing through single channels in inside-out or cell-attached patch configurations. In cell-attached patches, both bath and pipette (extracellular) solutions were composed of the following: 140 mM KCl, 10 mM HEPES, 5.5 mM dextrose, and 1 mM EGTA. In inside-out patches, the bath (intracellular) solution contained 140 mM KCl, 1.2 mM MgCl2, 10 mM HEPES, 1.5 mM EGTA and 5.5 mM dextrose. The pipette (extracellular) solution was of the same composition as that used in cell-attached recordings. The pH of all solutions was adjusted to 7.4 with KOH. Osmolality was adjusted approximately to 300 mOsm/l by adding sucrose if necessary. We pulled patch micropipettes from borosilicate glass capillaries using a Flaming/Brown micropipette puller, model P-97 (Sutter, San Rafael, CA) and flame polished them with a microforge polisher (Narishige, Tokyo, Japan) prior to use. Their resistance ranged between 3 and 6 MΩ when filled with the internal solution, and placed into the recording solutions.
# Sampling frequency of single-channel data was 5 KHz with a low-pass filter (1 KHz). […] We applied a conventional 50% current amplitude threshold level criterion to determine open events. Channel open probability (Po) was determined from the ratios of the area under the peaks in the amplitude histograms fitted by a Gaussian distribution. We calculated channel activity as NPo (where N is the number of observed channels in the patch) from data samples of either 30 s (in inside-out recordings), or 60 s (in cell-attached recordings), in the steady state. In inside-out recordings, NPo of the KATP channels was normalized to the baseline NPo value obtained before test drugs at bathing solution without ATP (indicating relative channel activity).
# [2] = molecular target: T1, KATP channels in large DRG neurons; assay: Excised inside-out (cell-free) patch-clamp recording of KATP channel activity; assay type: biochemical; conditions: SS neurons; for direct effect on KATP channel in inside-out patches: n = 6
# Text: as §1
# For patch-clamp recordings, we placed excised DRG into separate 35 mm Petri dishes containing cold, oxygenated, Hanks Balanced Salt Solution (Gibko, Invitrogen, Grand Islan, NY), and minced them with iris scissors. We dissociated ganglia enzymatically in a solution containing 0.25 ml 0.05% w:v liberase blendzyme 2 (Roche Diagnostics Corp., Indianapolis, IN) and 0.25 ml DMEM/F12 with glutaMAX (Dulbecco's modified Eagle's medium F12; Gibco, Invitrogen Corp., Carlsbad, CA) in an incubator at 37°C for 30 min. We then removed the supernatant after centrifugation and re-incubated cells at 37°C for another 30 min in 0.2 ml 0.0625% trypsin (Sigma, St. Louis, MO) and 0.0125% deoxyribonuclease 1 (150,000 U, Sigma, St. Louis, MO) in 0.25 ml DMEM. We then isolated cells by centrifugation (600 rpm for 5 min) after adding 0.25 ml trypsin inhibitor 0.1% w:v (Sigma St. Louis, MO), and re-suspended them in a culture medium consisting of 0.5 mM glutamine, 0.02 mg/ml gentamicin (Gibco, Invitrogen Corp., Carlsbad, CA), 100 ng/ml nerve growth factor 7S (Alomone Labs, Jerusalem, Israel), 2% (vol/vol) B-27 supplement (Gibco, Invitrogen Corp., Carlsbad, CA), and 98% (vol/vol) neural basal medium A (Gibco, Invitrogen Corp., Carlsbad, CA). Finally, we plated cells onto poly-l-lysine-coated 12-mm glass coverslips (Deutsche Spiegelglas; Carolina Biologic Supply, Burlington, NC), kept them in a humidified incubator at 37°C with 95% air and 5% CO2, and studied them within 3–8 h of dissociation.
# We visualized plated neurons using an inverted Nikon Diaphot 300 microscope with Hoffman modulation optic system. We selected only large diameter neuronal somata (≥ 40 μm in diameter) because we have previously shown that only these develop KATP current alterations, as well as changes indicative of increased excitability after painful-like nerve injury by SNL [74]. Large neuronal somata, roughly correspond to large, myelinated Aβ fibers.
# as §2
# We recorded single channel currents at room temperature (20–25°C) using an Axon CNS Multiclamp 700B amplifier, digitized them using an analog-to-digital converter (Axon CNS DigiData 1440A; Axon Instruments, Foster, CA), and stored them into a PC. Sampling frequency of single-channel data was 5 KHz with a low-pass filter (1 KHz). We used pClamp version 10.2 software (Axon Instruments) for data acquisition and analysis. We applied a conventional 50% current amplitude threshold level criterion to determine open events. Channel open probability (Po) was determined from the ratios of the area under the peaks in the amplitude histograms fitted by a Gaussian distribution. […]
substance,measurement,setting,value
S-nitroso-N-acetylpenicillamine [SNAP],washout period after which effects were reversible,"[1]; SNAP, data not shown",2 to 5 min
same,NPo steady-state value 10 minutes after application of SNAP,[1]; SNL neurons,0.31 ± 0.09
same,concentration at which KATP channel activation reaches a saturating plateau,[1]; SS and SNL neurons,≥ 100 µM
same,NPo steady-state value 10 minutes after application of SNAP,[1]; SS neurons,0.27 ± 0.07
same,direct effect on KATP channel in inside-out patches,[2]; SNAP 100 μM in the presence of 10 μM [ATP]i,did not produce any significant channel activation
same,direct effect on KATP channel in inside-out patches,[2]; SNAP 100 μM in the presence of 1 mM [ATP]i,gradually activated
same,baseline current amplitude and conductance of channels,"[2]; patch exposure to 100 μM SNAP, n = 5",remained unchanged

# — PMC2673211, “Nitric oxide activates ATP-sensitive potassium channels in mammalian sensory neurons: action by direct S-nitrosylation” (Molecular Pain, 2009)
